Legend:
[1] = target: 5-hydroxytryptamine receptor 3A (Homo sapiens) (UniProt P46098); conditions: Compound concentration 10.0 uM
[2] = target: Cyclin-dependent kinase 17 (Homo sapiens) (UniProt Q00537)
[3] = test system: Epidermal growth factor receptor (Homo sapiens), P00533 [UNDEFINED MUTATION]
[4] = target: Bone morphogenetic protein receptor type-1B (Homo sapiens) (UniProt O00238)
[5] = target: Receptor-interacting serine/threonine-protein kinase 2 (Homo sapiens) (UniProt O43353)
[6] = target: Fibroblast growth factor receptor 2 (Homo sapiens) (UniProt P21802)
[7] = target: Calcium/calmodulin-dependent protein kinase type II subunit delta (Homo sapiens) (UniProt Q13557)
[8] = target: Myosin light chain kinase family member 4 (Homo sapiens) (UniProt Q86YV6)
[9] = target: Rho-associated protein kinase 2 (Homo sapiens) (UniProt O75116)
[10] = target: Tyrosine-protein kinase Lck (Homo sapiens) (UniProt P06239)
[11] = test system: Epidermal growth factor receptor (Homo sapiens), P00533 [G719S]
[12] = target: Serine/threonine-protein kinase PAK 6 (Homo sapiens) (UniProt Q9NQU5)
[13] = target: Beta-3 adrenergic receptor (Homo sapiens) (UniProt P13945); conditions: Compound concentration 10.0 uM
[14] = target: Tyrosine-protein kinase Fgr (Homo sapiens) (UniProt P09769)
[15] = target: Serine/threonine-protein kinase 17A (Homo sapiens) (UniProt Q9UEE5)
[16] = target: Discoidin domain-containing receptor 2 (Homo sapiens) (UniProt Q16832)
[17] = target: Serine/threonine-protein kinase MAK (Homo sapiens) (UniProt P20794)
[18] = target: cAMP-dependent protein kinase catalytic subunit PRKX (Homo sapiens) (UniProt P51817)
[19] = test system: Phosphatidylinositol 4,5-bisphosphate 3-kinase catalytic subunit alpha isoform (Homo sapiens), P42336 [E545A]
[20] = target: Sigma intracellular receptor 2 (Homo sapiens, UniProt Q5BJF2); conditions: Compound concentration 10.0 uM
[21] = target: Serine/threonine-protein kinase Nek10 (Homo sapiens) (UniProt Q6ZWH5)
[22] = target: RAC-gamma serine/threonine-protein kinase (Homo sapiens) (UniProt Q9Y243)
[23] = target: Ephrin type-A receptor 1 (Homo sapiens) (UniProt P21709)
[24] = target: Aurora kinase B (Homo sapiens) (UniProt Q96GD4)
[25] = target: Hormonally up-regulated neu tumor-associated kinase (Homo sapiens) (UniProt P57058)
[26] = target: Ribosomal protein S6 kinase alpha-3 (Homo sapiens) (UniProt P51812)
[27] = target: Death-associated protein kinase 1 (Homo sapiens) (UniProt P53355)
[28] = target: Muscarinic acetylcholine receptor M2 (Homo sapiens) (UniProt P08172); conditions: Compound concentration 10.0 uM
[29] = target: Serine/threonine-protein kinase Nek7 (Homo sapiens) (UniProt Q8TDX7)
[30] = target: Calcium/calmodulin-dependent protein kinase type II subunit alpha (Homo sapiens) (UniProt Q9UQM7)
[31] = test system: Receptor-type tyrosine-protein kinase FLT3 (Homo sapiens), P36888 [UNDEFINED MUTATION]
[32] = target: Cyclin-dependent kinase 2 (Homo sapiens) (UniProt P24941)
[33] = target: Dual serine/threonine and tyrosine protein kinase (Homo sapiens) (UniProt Q6XUX3)
[34] = target: Serine/threonine-protein kinase WNK1 (Homo sapiens) (UniProt Q9H4A3)
[35] = target: Serine/threonine-protein kinase TNNI3K (Homo sapiens) (UniProt Q59H18)
[36] = target: Mitogen-activated protein kinase 11 (Homo sapiens) (UniProt Q15759)
[37] = test system: Receptor-type tyrosine-protein kinase FLT3 (Homo sapiens), P36888 [D835H]
[38] = target: Leucine-rich repeat serine/threonine-protein kinase 2 (Homo sapiens) (UniProt Q5S007)
[39] = target: Cyclin-dependent kinase 9 (Homo sapiens) (UniProt P50750)
[40] = target: Alpha-2C adrenergic receptor (Homo sapiens) (UniProt P18825); conditions: Compound concentration 10.0 uM
[41] = target: SRSF protein kinase 1 (Homo sapiens) (UniProt Q96SB4)
[42] = target: Serine/threonine-protein kinase TAO1 (Homo sapiens) (UniProt Q7L7X3)
[43] = target: Mitogen-activated protein kinase kinase kinase 10 (Homo sapiens) (UniProt Q02779)
[44] = target: Mitogen-activated protein kinase kinase kinase 19 (Homo sapiens) (UniProt Q56UN5)
[45] = target: Testis-specific serine/threonine-protein kinase 3 (Homo sapiens) (UniProt Q96PN8)
[46] = Compound concentration 1000.0 nM
[47] = Compound concentration 100.0 nM

Myosin light chain kinase family member 4 (Homo sapiens), sequence (Q86YV6 whole entry): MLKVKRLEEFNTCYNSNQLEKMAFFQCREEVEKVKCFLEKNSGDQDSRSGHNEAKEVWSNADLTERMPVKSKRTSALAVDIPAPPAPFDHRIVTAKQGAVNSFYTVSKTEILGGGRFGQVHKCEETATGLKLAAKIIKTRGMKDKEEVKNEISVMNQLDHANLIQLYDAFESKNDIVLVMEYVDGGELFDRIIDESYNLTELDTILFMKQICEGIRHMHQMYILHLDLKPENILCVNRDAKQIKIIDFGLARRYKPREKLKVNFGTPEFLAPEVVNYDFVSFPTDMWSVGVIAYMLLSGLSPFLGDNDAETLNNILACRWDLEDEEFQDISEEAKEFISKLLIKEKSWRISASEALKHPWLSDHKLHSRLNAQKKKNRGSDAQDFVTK
Serine/threonine-protein kinase 17A (Homo sapiens), sequence (Q9UEE5 whole entry, the tested form may be a part): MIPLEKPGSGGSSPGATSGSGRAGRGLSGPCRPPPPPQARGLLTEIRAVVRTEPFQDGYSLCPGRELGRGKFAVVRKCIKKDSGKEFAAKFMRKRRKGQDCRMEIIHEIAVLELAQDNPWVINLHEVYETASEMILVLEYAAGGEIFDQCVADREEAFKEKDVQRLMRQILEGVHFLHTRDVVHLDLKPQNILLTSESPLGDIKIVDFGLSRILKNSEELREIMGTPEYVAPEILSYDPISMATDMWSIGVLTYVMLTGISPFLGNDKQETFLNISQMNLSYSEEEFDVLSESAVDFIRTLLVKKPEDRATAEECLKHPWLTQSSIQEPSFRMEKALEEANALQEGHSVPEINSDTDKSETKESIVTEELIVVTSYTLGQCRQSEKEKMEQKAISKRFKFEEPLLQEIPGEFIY
SRSF protein kinase 1 (Homo sapiens), sequence (Q96SB4 whole entry): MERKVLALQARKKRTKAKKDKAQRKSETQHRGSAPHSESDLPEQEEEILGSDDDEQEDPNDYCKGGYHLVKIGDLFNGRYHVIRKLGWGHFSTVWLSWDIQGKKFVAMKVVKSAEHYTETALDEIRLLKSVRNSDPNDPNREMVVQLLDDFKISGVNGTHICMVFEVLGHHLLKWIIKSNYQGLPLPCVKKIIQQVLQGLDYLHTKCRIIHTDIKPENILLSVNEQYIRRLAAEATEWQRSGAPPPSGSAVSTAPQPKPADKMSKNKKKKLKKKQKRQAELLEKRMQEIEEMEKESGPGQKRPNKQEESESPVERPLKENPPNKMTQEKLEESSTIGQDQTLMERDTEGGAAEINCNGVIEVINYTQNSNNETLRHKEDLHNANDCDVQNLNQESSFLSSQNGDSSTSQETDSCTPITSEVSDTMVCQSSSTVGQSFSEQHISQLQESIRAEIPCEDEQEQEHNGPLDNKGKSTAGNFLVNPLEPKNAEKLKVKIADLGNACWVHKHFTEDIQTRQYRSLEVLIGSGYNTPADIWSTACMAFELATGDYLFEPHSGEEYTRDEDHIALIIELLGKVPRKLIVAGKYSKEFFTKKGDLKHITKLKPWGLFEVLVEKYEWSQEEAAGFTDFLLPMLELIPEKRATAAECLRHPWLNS
RAC-gamma serine/threonine-protein kinase (Homo sapiens), sequence (Q9Y243 whole entry): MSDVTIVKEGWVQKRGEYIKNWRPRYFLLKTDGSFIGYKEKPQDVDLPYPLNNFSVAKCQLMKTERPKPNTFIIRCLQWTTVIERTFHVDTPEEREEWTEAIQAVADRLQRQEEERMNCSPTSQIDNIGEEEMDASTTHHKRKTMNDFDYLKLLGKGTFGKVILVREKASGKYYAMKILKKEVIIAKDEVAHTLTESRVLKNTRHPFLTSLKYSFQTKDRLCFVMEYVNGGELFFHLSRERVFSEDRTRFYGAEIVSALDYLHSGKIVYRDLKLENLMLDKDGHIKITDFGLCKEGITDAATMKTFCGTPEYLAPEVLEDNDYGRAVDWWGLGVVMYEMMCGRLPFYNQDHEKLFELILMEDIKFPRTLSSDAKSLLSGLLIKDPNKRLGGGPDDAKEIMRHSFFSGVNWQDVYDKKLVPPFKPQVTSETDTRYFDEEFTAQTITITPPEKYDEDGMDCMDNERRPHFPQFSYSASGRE
Serine/threonine-protein kinase TAO1 (Homo sapiens), sequence (Q7L7X3 whole entry): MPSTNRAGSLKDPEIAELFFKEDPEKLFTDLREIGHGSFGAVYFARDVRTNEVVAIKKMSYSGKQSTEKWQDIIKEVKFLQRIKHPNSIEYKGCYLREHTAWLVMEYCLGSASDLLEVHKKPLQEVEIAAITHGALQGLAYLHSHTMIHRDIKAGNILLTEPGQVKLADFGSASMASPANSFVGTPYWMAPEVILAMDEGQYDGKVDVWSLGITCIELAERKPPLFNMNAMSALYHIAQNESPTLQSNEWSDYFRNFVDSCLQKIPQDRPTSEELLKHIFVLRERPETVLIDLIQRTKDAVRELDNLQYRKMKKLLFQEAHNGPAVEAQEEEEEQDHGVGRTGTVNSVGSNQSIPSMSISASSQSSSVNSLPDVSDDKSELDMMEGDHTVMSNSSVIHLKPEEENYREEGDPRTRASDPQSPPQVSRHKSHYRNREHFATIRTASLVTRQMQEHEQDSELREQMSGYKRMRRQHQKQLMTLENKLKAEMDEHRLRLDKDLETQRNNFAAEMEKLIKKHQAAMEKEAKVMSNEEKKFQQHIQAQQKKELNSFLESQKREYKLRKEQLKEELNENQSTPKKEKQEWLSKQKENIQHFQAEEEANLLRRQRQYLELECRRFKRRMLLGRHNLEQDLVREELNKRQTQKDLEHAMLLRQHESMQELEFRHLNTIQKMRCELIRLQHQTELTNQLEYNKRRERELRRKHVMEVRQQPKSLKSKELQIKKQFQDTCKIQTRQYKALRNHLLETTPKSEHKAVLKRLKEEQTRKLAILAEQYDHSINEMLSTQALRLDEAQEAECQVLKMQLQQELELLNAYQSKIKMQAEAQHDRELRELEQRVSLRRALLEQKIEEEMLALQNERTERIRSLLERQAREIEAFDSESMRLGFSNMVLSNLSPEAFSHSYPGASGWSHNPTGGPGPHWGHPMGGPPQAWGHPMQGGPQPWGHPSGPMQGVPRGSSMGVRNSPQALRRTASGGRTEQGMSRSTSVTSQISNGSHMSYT
Dual serine/threonine and tyrosine protein kinase (Homo sapiens), sequence (Q6XUX3 whole entry): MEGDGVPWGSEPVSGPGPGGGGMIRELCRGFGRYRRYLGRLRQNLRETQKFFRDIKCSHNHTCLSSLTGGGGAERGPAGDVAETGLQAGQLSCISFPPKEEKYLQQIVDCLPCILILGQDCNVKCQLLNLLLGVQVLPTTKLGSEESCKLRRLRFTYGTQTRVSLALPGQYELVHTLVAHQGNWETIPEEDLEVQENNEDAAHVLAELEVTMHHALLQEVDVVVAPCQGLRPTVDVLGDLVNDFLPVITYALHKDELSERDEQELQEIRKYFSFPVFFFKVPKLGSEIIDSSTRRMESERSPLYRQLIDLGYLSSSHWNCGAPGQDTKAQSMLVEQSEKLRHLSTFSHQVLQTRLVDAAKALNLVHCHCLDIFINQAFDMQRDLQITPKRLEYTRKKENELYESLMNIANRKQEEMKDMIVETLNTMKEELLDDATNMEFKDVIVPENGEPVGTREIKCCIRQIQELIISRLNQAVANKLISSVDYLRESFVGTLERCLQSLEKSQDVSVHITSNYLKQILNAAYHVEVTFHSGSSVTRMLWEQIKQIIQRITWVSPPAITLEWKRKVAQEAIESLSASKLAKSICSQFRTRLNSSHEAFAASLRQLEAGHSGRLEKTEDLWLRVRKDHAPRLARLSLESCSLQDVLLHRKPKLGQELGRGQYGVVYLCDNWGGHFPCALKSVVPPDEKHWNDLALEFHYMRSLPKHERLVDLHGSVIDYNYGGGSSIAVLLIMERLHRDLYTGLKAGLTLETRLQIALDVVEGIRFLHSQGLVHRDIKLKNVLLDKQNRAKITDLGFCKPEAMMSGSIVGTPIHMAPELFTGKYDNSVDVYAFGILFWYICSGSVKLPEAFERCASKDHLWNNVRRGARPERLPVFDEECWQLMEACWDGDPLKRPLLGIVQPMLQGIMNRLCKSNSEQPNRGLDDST
Beta-3 adrenergic receptor (Homo sapiens), sequence (P13945 whole entry, looked up): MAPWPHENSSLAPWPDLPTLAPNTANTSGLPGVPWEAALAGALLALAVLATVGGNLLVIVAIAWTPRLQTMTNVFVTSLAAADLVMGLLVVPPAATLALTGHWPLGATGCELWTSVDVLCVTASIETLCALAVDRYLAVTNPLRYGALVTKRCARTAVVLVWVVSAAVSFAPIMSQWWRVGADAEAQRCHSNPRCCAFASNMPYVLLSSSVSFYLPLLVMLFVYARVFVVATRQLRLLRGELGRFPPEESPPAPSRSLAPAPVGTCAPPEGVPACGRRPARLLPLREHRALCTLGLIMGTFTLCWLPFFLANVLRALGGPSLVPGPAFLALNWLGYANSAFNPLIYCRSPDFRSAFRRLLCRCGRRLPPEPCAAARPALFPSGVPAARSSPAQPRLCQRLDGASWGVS
Cyclin-dependent kinase 17 (Homo sapiens), sequence (Q00537 whole entry, looked up): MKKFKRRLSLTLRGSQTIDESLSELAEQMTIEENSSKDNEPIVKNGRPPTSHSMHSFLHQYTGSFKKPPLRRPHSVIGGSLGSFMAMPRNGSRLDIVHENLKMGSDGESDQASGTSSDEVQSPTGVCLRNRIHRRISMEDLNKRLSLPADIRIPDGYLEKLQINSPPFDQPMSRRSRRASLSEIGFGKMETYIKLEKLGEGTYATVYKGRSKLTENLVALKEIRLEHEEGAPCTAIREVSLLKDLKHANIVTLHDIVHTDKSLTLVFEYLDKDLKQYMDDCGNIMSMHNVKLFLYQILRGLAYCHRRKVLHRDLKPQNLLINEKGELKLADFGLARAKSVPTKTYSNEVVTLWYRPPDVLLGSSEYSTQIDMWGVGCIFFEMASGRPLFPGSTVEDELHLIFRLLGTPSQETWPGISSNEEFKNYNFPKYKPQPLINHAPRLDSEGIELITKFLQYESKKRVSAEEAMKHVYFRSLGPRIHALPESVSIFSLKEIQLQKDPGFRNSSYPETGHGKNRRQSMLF
Sigma intracellular receptor 2, sequence (Q5BJF2 whole entry): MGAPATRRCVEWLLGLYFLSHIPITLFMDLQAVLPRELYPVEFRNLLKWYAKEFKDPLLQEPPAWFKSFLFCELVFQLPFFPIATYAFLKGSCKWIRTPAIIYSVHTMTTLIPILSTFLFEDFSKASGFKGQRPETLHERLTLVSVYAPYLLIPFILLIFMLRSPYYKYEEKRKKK

CN(C)c1ncnc(-c2ccc3nc(Nc4cc(CN5CCN(C(=O)CC(F)(F)F)CC5)ccn4)[nH]c3c2)c1Cl [BAY-440]
inhibition [1]: 35.6%
residual activity [2, 46]: 100%
residual activity [3, 46]: 100%
residual activity [4, 46]: 59%
residual activity [5, 46]: 37%
residual activity [6, 46]: 100%
residual activity [7, 46]: 90%
residual activity [8, 46]: 100%
residual activity [9, 46]: 91%
residual activity [10, 46]: 100%
residual activity [11, 46]: 79%
residual activity [12, 46]: 100%
inhibition [13]: 4.42%
residual activity [14, 46]: 98%
residual activity [15, 46]: 34%
residual activity [16, 46]: 71%
residual activity [17, 46]: 100%
residual activity [18, 46]: 100%
residual activity [19, 46]: 100%
inhibition [20]: 68.1%
residual activity [21, 46]: 72%
residual activity [22, 46]: 96%
residual activity [23, 46]: 100%
residual activity [24, 46]: 85%
residual activity [25, 46]: 80%
residual activity [26, 46]: 81%
residual activity [27, 46]: 100%
inhibition [28]: 35.1%
residual activity [29, 46]: 100%
residual activity [30, 46]: 100%
residual activity [31, 46]: 15%
residual activity [32, 46]: 100%
residual activity [33, 46]: 95%
residual activity [34, 46]: 86%
residual activity [35, 46]: 50%
residual activity [36, 46]: 97%
residual activity [37, 46]: 42%
residual activity [38, 46]: 84%
residual activity [39, 46]: 100%
inhibition [40]: 7.09%
residual activity [41, 46]: 47%
residual activity [42, 46]: 77%
residual activity [43, 46]: 100%
residual activity [44, 46]: 15%
residual activity [45, 46]: 62%

C[C@H](c1ccnc(Nc2nc3ccc(-c4cc(N(C)C)ncn4)cc3[nH]2)c1)N1CCN(C(=O)CC(F)(F)F)CC1 [BAY-985]
inhibition [1]: 31.9%
residual activity [2, 47]: 100%
residual activity [3, 47]: 89%
residual activity [4, 47]: 86%
residual activity [5, 47]: 71%
residual activity [6, 47]: 100%
residual activity [7, 47]: 70%
residual activity [8, 47]: 100%
residual activity [9, 47]: 100%
residual activity [10, 47]: 100%
residual activity [11, 47]: 91%
residual activity [12, 47]: 100%
inhibition [13]: 30.4%
residual activity [14, 47]: 85%
residual activity [15, 47]: 40%
residual activity [16, 47]: 100%
residual activity [17, 47]: 100%
residual activity [18, 47]: 99%
residual activity [19, 47]: 100%
inhibition [20]: 54.1%
residual activity [21, 47]: 100%
residual activity [22, 47]: 100%
residual activity [23, 47]: 99%
residual activity [24, 47]: 100%
residual activity [25, 47]: 95%
residual activity [26, 47]: 100%
residual activity [27, 47]: 93%
inhibition [28]: 32.9%
residual activity [29, 47]: 100%
residual activity [30, 47]: 99%
residual activity [31, 47]: 64%
residual activity [32, 47]: 100%
residual activity [33, 47]: 100%
residual activity [34, 47]: 100%
residual activity [35, 47]: 59%
residual activity [36, 47]: 89%
residual activity [37, 47]: 71%
residual activity [38, 47]: 94%
residual activity [39, 47]: 100%
inhibition [40]: 9.82%
residual activity [41, 47]: 85%
residual activity [42, 47]: 100%
residual activity [43, 47]: 100%
residual activity [44, 47]: 10%
residual activity [45, 47]: 74%

— ChEMBL document CHEMBL4507318, “Data for DCP probe BAY-985” (2021)
